Structures are written as SMILES.

The values that follow come from patent publication EP4678638A1, “NEW E3 UBIQUITIN LIGASE LIGAND, PROTEIN DEGRADATION AGENT AND USE THEREOF” (priority 2023, dated 2024).

One assay deals with H1975. Nature of the assay: CCK-8 proliferation, NCI-H1975 (H1975). The conditions noted are these: Homo sapiens, NCI-H1975; CCK-8; 96 hours; read-out: Inhibitory activity (IC50) on tumor cell proliferation, H1975. Format: cell-based, Human. The procedure: The tumor cells used herein were cultured in a cell culture medium listed in table A1 at 37°C in an incubator with 5% CO2. Prior to experimentation, all cell lines used were correctly identified by STR profiling, and tested negative for mycoplasma contamination using a mycoplasma detection kit through routine screenings. Table A1. Tumor cells and cell culture medium used in the present disclosure
IC50 values of the compounds of the present disclosure (including the compounds in Table 1, and compounds of examples) were measured using the Meilun Cell Counting Kit-8 kit from Dalian Meilun Biotech Co., Ltd. Assay details are as follows: tumor cells were seeded in a 96-well plate at a density listed in Table A2. After 24h, 100 µL of the inoculated cells were treated with 0.5µL of the compounds of the present disclosure (including the compounds in Tables 1 and 2, and compounds of examples) at 10 different successively decreasing concentrations (starting at the highest concentration of 10µM; 5-fold serial dilutions). After the cells were treated with the compounds of the present disclosure for a period of time, the cell viability detection reagent was added to the culture medium for cell viability assessment according to the instructions provided with the CCK-8 kit. […] The growth inhibition of the compounds of the present disclosure on cells was plotted by Prism Graphpad software, and the IC50 values of the compounds of the present disclosure were calculated therefrom. […] Seeding protocol and treatment time for tumor cells

For assay [1], the target named is T1, human Cereblon WT GST-tagged protein (Homo sapiens, UniProt Q96SW2).
T1 construct: purchased CISBIO 64BDCRBNPEH
T1 sequence (Q96SW2 whole entry): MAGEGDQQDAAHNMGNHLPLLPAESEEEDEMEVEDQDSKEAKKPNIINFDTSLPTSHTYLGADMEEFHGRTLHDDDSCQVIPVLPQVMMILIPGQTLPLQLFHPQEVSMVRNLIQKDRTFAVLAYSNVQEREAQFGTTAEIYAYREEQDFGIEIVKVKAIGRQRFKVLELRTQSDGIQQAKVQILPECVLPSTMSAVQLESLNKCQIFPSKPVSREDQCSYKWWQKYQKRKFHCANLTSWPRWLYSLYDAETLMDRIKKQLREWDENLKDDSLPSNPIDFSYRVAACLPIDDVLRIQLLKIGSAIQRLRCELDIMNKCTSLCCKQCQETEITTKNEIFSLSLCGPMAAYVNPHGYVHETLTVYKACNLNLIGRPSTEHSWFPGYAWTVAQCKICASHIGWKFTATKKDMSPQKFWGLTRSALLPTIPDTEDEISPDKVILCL
The experiment in a line: CRBN binding, HTRF (CEREBLON BINDING kit). The conditions noted are these: Table II-2, CRBN binding screening, HTRF; for inhibition at 0.5 µM: read-out: Inhibition rate (%) at 0.5µM; for inhibition at 2 µM: read-out: Inhibition rate (%) at 2 µM. An outline of the steps: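 Competitive HTRF: GST-tagged human WT Cereblon mixed with compound, Thalidomide-Re tracer and GST Eu antibody, incubated 3 h at room temperature. Signals read at 620 and 665 nm.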
In general terms: TR-FRET usually uses a lanthanide donor and a delayed reading to cut background.

As for `CN(Cc1ccc(C2CCC(=O)NC2=O)cc1)C1CCN(c2ccc(-c3cc(F)c4c(c3)C(=O)N(C(C(=O)Nc3nccs3)c3ncn5c3CCC5)C4)cc2)CC1` (stereo not shown) [GT-05218, 2-(6,7-dihydro-5H-pyrrolo[1,2-c]imidazol-1-yl)-2-(6-(4-(4-((4-(2,6-dioxopiperidin-3-yl)benzyl)(methyl)amino)piperidin-1-yl)phenyl)-4-fluoro-1-oxoisoindolin-2-yl)-N-(thiazol-2-yl)acetamide], in the assay on H1975, the IC50 lay in the range of 1 to 10 nM.

With `CN(Cc1ccc(N2CCC(=O)NC2=O)cc1)C1CCN(c2ccc(-c3cc(F)c4c(c3)C(=O)N(C(C(=O)Nc3nccs3)c3ncn5c3CCC5)C4)cc2)CC1` (stereo not shown) [GT-05219, 2-(6,7-dihydro-5H-pyrrolo[1,2-c]imidazol-1-yl)-2-(6-(4-(4-((4-(2,4-dioxotetrahydropyrimidin-1(2H)-yl)benzyl)(methyl)amino)piperidin-1-yl)phenyl)-4-fluoro-1-oxoisoindolin-2-yl)-N-(thiazol-2-yl)acetamide], the IC50 with H1975 was in the range of 1 to 10 nM. For `O=C1CCC(c2cncc(CN3CCC(n4cc(NC(=O)c5cnn6ccc(N7C[C@H]8C[C@@H]7CO8)nc56)c(C(F)F)n4)CC3)c2)C(=O)N1` (stereo partly drawn) [GT-07778, 5-((1R,4R)-2-oxa-5-azabicyclo[2.2.1]heptan-5-yl)-N-(3-(difluoromethyl)-1-(1-((5-(2,6-dioxopiperidin-3-yl)pyridin-3-yl)methyl)piperidin-4-yl)-1H-pyrazol-4-yl)pyrazolo[1,5-a]pyrimidine-3-carboxamide], the inhibition at 0.5 µM in assay [1] (at 0.5µM) lay within 40 to 53%. Besides, the inhibition at 2 µM in assay [1] (at 2 µM) lay within 80 to 100%. The matching figures for `CC(C)Nc1cc(-n2ccc3cc(C#N)cnc32)ncc1C(=O)NC1CCN(Cc2cc(N3CCC(=O)NC3=O)cnc2F)CC1` [GT-07779, 6-(5-cyano-1H-pyrrolo[2,3-b]pyridin-1-yl)-N-(1-((5-(2,4-dioxotetrahydropyrimidin-1(2H)-yl)-2-fluoropyridin-3-yl)methyl)piperidin-4-yl)-4-(isopropylamino)nicotinamide]: 20 to 30% and 60 to 80%. The matching figures for `CC(C)(O)c1cc2nn(C3CCN(Cc4cc(N5CCC(=O)NC5=O)cnc4F)CC3)cc2cc1NC(=O)c1cccc(C(F)(F)F)n1` [GT-07783, N-(2-(1-((5-(2,4-dioxotetrahydropyrimidin-1(2H)-yl)-2-fluoropyridin-3-yl)methyl)piperidin-4-yl)-6-(2-hydroxypropan-2-yl)-2H-indazol-5-yl)-6-(trifluoromethyl)picolinamide]: 30 to 40% and 60 to 80%. For `O=C1CCN(c2cnc(F)c(CN3CCC(n4cc(NC(=O)c5cnn6ccc(N7CCOCC7)nc56)c(C(F)F)n4)CC3)c2)C(=O)N1` [GT-07789, N-(3-(difluoromethyl)-1-(1-((5-(2,4-dioxotetrahydropyrimidin-1(2H)-yl)-2-fluoropyridin-3-yl)methyl)piperidin-4-yl)-1H-pyrazol-4-yl)-5-morpholinopyrazolo[1,5-a]pyrimidine-3-carboxamide] the same measures were 20 to 30% and 60 to 80%.

`O=C1CCN(c2cnc(F)c(CN3CCC(n4cc(NC(=O)c5cnn6ccc(N7C[C@H]8C[C@@H]7CO8)nc56)c(C(F)F)n4)CC3)c2)C(=O)N1` [GT-07791, 5-((1R,4R)-2-oxa-5-azabicyclo[2.2.1]heptan-5-yl)-N-(3-(difluoromethyl)-1-(1-((5-(2,4-dioxotetrahydropyrimidin-1(2H)-yl)-2-fluoropyridin-3-yl)methyl)piperidin-4-yl)-1H-pyrazol-4-yl)pyrazolo[1,5-a]pyrimidine-3-carboxamide]: the inhibition at 0.5 µM in assay [1] (at 0.5µM) lay within 30 to 40%. For the same compound, the inhibition at 2 µM in assay [1] (at 2 µM) was 60 to 80%. The matching figures for `CC(C)(O)c1cc2nn(C3CCN(Cc4cc(C5CCC(=O)NC5=O)cnc4F)CC3)cc2cc1NC(=O)c1cccc(C(F)(F)F)n1` (stereo not shown) [GT-07793, N-(2-(1-((5-(2,6-dioxopiperidin-3-yl)-2-fluoropyridin-3-yl)methyl)piperidin-4-yl)-6-(2-hydroxypropan-2-yl)-2H-indazol-5-yl)-6-(trifluoromethyl)picolinamide]: 60 to 80% and 80 to 100%. Regarding `COc1cc2nn(C3CCN(Cc4cc(N5CCC(=O)NC5=O)cnc4F)CC3)cc2cc1NC(=O)c1cccc(C(F)(F)F)n1` [GT-07799, N-(2-(1-((5-(2,4-dioxotetrahydropyrimidin-1(2H)-yl)-2-fluoropyridin-3-yl)methyl)piperidin-4-yl)-6-methoxy-2H-indazol-5-yl)-6-(trifluoromethyl)picolinamide], the inhibition at 0.5 µM in assay [1] (at 0.5µM) fell in the range of 20 to 30%. The inhibition at 2 µM in assay [1] (at 2 µM) fell in the range of 60 to 80%.

For the compound `CN(Cc1cc(N2CCC(=O)NC2=O)cnc1F)C1CCN(c2ccc(-c3cc(F)c4c(c3)C(=O)N(C(C(=O)Nc3nccs3)c3ncn5c3CCC5)C4)cc2)CC1` (stereo not shown) [GT-07823, 2-(6,7-dihydro-5H-pyrrolo[1,2-c]imidazol-1-yl)-2-(6-(4-(4-(((5-(2,4-dioxotetrahydropyrimidin-1(2H)-yl)-2-fluoropyridin-3-yl)methyl)(methyl)amino)piperidin-1-yl)phenyl)-4-fluoro-1-oxoisoindolin-2-yl)-N-(thiazol-2-yl)acetamide], the inhibition at 0.5 µM in assay [1] (at 0.5µM) was in the range of 53 to 60%. Also, in assay [1] (at 2 µM), the inhibition at 2 µM lay within 80 to 100%.

Consider `O=C1CCN(c2cnc(F)c(CN3C[C@H]4C[C@@H]3CN4c3ccc(-c4cc(F)c5c(c4)C(=O)N(C(C(=O)Nc4nccs4)c4ncn6c4CCC6)C5)cc3)c2)C(=O)N1` (stereo partly drawn) [GT-07825, 2-(6,7-dihydro-5H-pyrrolo[1,2-c]imidazol-1-yl)-2-(6-(4-((1R,4R)-5-((5-(2,4-dioxotetrahydropyrimidin-1(2H)-yl)-2-fluoropyridin-3-yl)methyl)-2,5-diazabicyclo[2.2.1]heptan-2-yl)phenyl)-4-fluoro-1-oxoisoindolin-2-yl)-N-(thiazol-2-yl)acetamide], for which the inhibition at 0.5 µM in assay [1] (at 0.5µM) fell in the range of 60 to 80%. Besides, the inhibition at 2 µM in assay [1] (at 2 µM) was 80 to 100%. The matching figures for `O=C1CCN(c2cnc(CN3C[C@H]4C[C@@H]3CN4c3ccc(-c4cc(F)c5c(c4)C(=O)N(C(C(=O)Nc4nccs4)c4ncn6c4CCC6)C5)cc3)cn2)C(=O)N1` (stereo partly drawn) [GT-07826, 2-(6,7-dihydro-5H-pyrrolo[1,2-c]imidazol-1-yl)-2-(6-(4-((1R,4R)-5-((5-(2,4-dioxotetrahydropyrimidin-1(2H)-yl)pyrazin-2-yl)methyl)-2,5-diazabicyclo[2.2.1]heptan-2-yl)phenyl)-4-fluoro-1-oxoisoindolin-2-yl)-N-(thiazol-2-yl)acetamide]: 10 to 20% and 53 to 60%. With `CC1(C)CCC(c2ccc(Cl)cc2)=C(CN2CCN(c3ccc(C(=O)NS(=O)(=O)c4ccc(N[C@H](CCN5CC6CCC5CN6Cc5ccc(C6CCC(=O)NC6=O)cc5)CSc5ccccc5)c(S(=O)(=O)C(F)(F)F)c4)cc3)CC2)C1` (stereo partly drawn) [GT-07878, 4-(4-((4'-chloro-4,4-dimethyl-3,4,5,6-tetrahydro-[1,1'-biphenyl]-2-yl)methyl)piperazin-1-yl)-N-((4-(((2R)-4-(5-(4-(2,6-dioxopiperidin-3-yl)benzyl)-2,5-diazabicyclo[2.2.2]octan-2-yl)-1-(phenylthio)butan-2-yl)amino)-3-((trifluoromethyl)sulfonyl)phenyl)sulfonyl)benzamide], the “Inhibition rate (%) at 0.5µM” value in assay [1] (at 0.5µM) is “a3 (30% < a3 ≤ 40%)”. Moreover, the “Inhibition rate (%) at 2 µM” value in assay [1] (at 2 µM) is “a5 (53% < a5 ≤ 60%)”.

In the case of `CC1(C)CCC(c2ccc(Cl)cc2)=C(CN2CCN(c3ccc(C(=O)NS(=O)(=O)c4ccc(N[C@H](CCN5CC6CCC5CN6Cc5cccc(NC6CCC(=O)NC6=O)c5)CSc5ccccc5)c(S(=O)(=O)C(F)(F)F)c4)cc3)CC2)C1` (stereo partly drawn) [GT-07882, 4-(4-((4'-chloro-4,4-dimethyl-3,4,5,6-tetrahydro-[1,1'-biphenyl]-2-yl)methyl)piperazin-1-yl)-N-((4-(((2R)-4-(5-(3-((2,6-dioxopiperidin-3-yl)amino)benzyl)-2,5-diazabicyclo[2.2.2]octan-2-yl)-1-(phenylthio)butan-2-yl)amino)-3-((trifluoromethyl)sulfonyl)phenyl)sulfonyl)benzamide], the inhibition at 0.5 µM in assay [1] (at 0.5µM) fell in the range of 30 to 40%. Further, in assay [1] (at 2 µM), the inhibition at 2 µM fell in the range of 30 to 40%. As for `[2H]C1([2H])N(CC[C@H](CSc2ccccc2)Nc2ccc(S(=O)(=O)NC(=O)c3ccc(N4CCN(CC5=C(c6ccc(Cl)cc6)CCC(C)(C)C5)CC4)cc3)cc2S(=O)(=O)C(F)(F)F)C([2H])([2H])C([2H])([2H])N(Cc2ccc(C3CCC(=O)NC3=O)cc2)C1([2H])[2H]` (stereo partly drawn) [GT-07906, 4-(4-((4'-chloro-4,4-dimethyl-3,4,5,6-tetrahydro-[1,1'-biphenyl]-2-yl)methyl)piperazin-1-yl)-N-((4-(((2R)-4-(4-(4-(2,6-dioxopiperidin-3-yl)benzyl)piperazin-1-yl-2,2,3,3,5,5,6,6-d8)-1-(phenylthio)butan-2-yl)amino)-3-((trifluoromethyl)sulfonyl)phenyl)sulfonyl)benzamide], the inhibition at 0.5 µM in assay [1] (at 0.5µM) lay in the range of 20 to 30%. Further, the inhibition at 2 µM in assay [1] (at 2 µM) lay within 53 to 60%.

A word on the inhibition: it is the change of the read-out against control, counted positive when it falls.
